Measurements from patent publication US7893068B2, “Physiologically active substances” (Mercian Corporation, priority 2002, dated 2011).
Where two headings read alike, the source gives them in different places.

Experiments:
VEGF promoter = experiment: VEGF transcription-suppressing activity (VEGF promoter-PLAP reporter, U251/1-8 cells, hypoxia); type: cell-based; conditions: Homo sapiens, read-out: VEGF transcription-suppressing activities (IC50: nM)
Excerpt: In order to prepare reporter system reflecting transcription from VEGF promoter, VEGF promoter sequence was cloned, and inserted in secretory alkaline phosphatase (PLAP) vector to construct reporter vector.
In order to obtain the promoter region of human VEGF, VEGF genomic DNA was cloned from phage library. PCR primers having the sequences described in Sequence Numbers 1 and 2 were designed based on VEGF cDNA (GenBank accession number: X62568) and a fragment having about 340 bp was obtained by carrying out PCR. Human genomic phage library (Human genomic library, Clontech Co.) was screened using this as a probe to obtain VEGF genomic DNA. The DNA was digested by EcoRI, and the resultant fragments were inserted in the EcoRI site of pUC18. Finally, pUC18-VEGFA containing about 5.4 kb of VEGF 5′ flanking region was obtained. The pUC18-VEGFA was digested by KpnI/NheI, VEGF promoter region of about 2.3 kb obtained was inserted in the multi cloning site KpnI/NheI of secretory alkaline phosphatase (PLAP) vector (Goto et al, Mol. Pharmacol., 49, 860-873, 1996), and thus, VEGF-PLAP vector was constructed.
The above-mentioned VEGF-PLAP vector was transfected in the U251 cell cultured in the DULBECCO-modified eagle medium (DMEM; manufactured by SIGMA Co., Ltd.) containing 10% fetal calf serum, and the cells were cultured in the presence of 1 mg/mL G418 (Merck Co.) to establish G418 resistant stable clone (U251/1-8 cell).
It was confirmed that U251/1-8 cell secreted PLAP under hypoxic condition (2% O2 incubator) in the same manner as in the report (Cell. Mol. Biol. Res. 40, 35-39, 1994) and was a reporter system reflecting the transcription from VEGF promoter. The screening of the compound suppressing VEGF production which was induced by hypoxic stimulation was carried out below using the clone.
In order to remove the influence of alkaline phosphates in serum, U251/1-8 cells were rinsed twice with the adequate amount of PBS (Phosphate buffered saline), diluted in the DMEM medium containing 10% of serum in which alkaline phosphates was inactivated by the treatment of 65° C. for 20 min., and dispensed in 96-well plates by 4×10^4 cells/180 μL.
After culturing at 37° C. overnight in a CO2 incubator (5% CO2), 20 μL of the above-mentioned incubation solution containing the test compound diluted with 3-fold succession was added, and then they were incubated in a hypoxic (2% […]) incubator for 18 hours. With respect to the PLAP activity in the culture supernatants, 10 μL of the supernatants was added to 50 μL of 0.28 M Na2CO3—NaHCO3 buffer solution (pH 10.0, 8.0 mM MgSO4), and finally 50 μL of alkaline phosphatase substrate (LUMISTEIN, Genomescience Co.) was added. After reacting for one hour, the alkaline phosphatase activity of the PLAP was measured by detecting the chemical luminescence by a micro plate reader (Perkin-Elmer Co.). The PLAP activity under normoxia was set as 0%, the PLAP activity of cell which was treated under hypoxia was set as 100%, and the concentration suppressing the PLAP activity by 50% was set as the IC50 value of PLAP. The IC50 values of 11107D derivatives shown in Examples were measured, and the IC50 values of representative 11107D derivatives are shown in Table 1.

[1] = test system: WiDr human colon cancer cells; experiment: Growth inhibitory activities on WiDr human colon cancer cells (MTT); type: cell-based; conditions: 72 h, three days incubation
Description: WiDr human colon cancer cells cultured in DULBECCO-modified eagle medium (DMEM; manufactured by SIGMA Co., Ltd.) containing 10% fetal calf serum, penicillin (100 unit/mL) and streptomycin (100 μg/mL) were dispensed in 96-well plates by 2×10^3 cells/well. After culturing overnight in a CO2 incubator, 20 μL of the above-mentioned incubation solution containing the test compound diluted with 3-fold succession was added, followed by incubation. After three days, 50 μL of 3.3 mg/mL MTT solution was added, followed by culturing for further one hour. Then, formazan formed by the reduction by the action of living cells was extracted with 100 μL of DMSO, the absorbance (A540/A660) was determined and was set as the index of the number of living cells.
The concentrations of the compounds of the formula (I) at which the growth of WiDr human colon cancer cells are inhibited 50% were determined.

[2] = Stability in an aqueous solution (HPLC residual ratio); conditions: for Peak area (mAU × sec) after 24 hours / The residual ratios (%): Britton-Robinson's buffer pH 7, 25° C., 24 hours; for Peak area (mAU × sec) initial: Britton-Robinson's buffer pH 7, before incubation
Description: The compounds of the formula (I) were dissolved in DMSO in concentrations of 10 to 20 mM, and these were diluted about 500 folds with Britton-Robinson's buffer solution of pH 7. Each of the solutions as sample solutions was incubated at 25° C. for 24 hours.
The sample solutions were analyzed by high performance liquid chromatography before and after incubation, and the residual ratios of the tested substances in the sample solutions after incubation were determined from the peak areas of the obtained chromatograms.

[3] = test system: WiDr human colon cancer cells; experiment: Solid tumor growth inhibitory activities, WiDr human colon tumor model in nude mice; type: in vivo; conditions: Mus musculus, iv, 360 h, read-out: Growth inhibitory activities in the WiDr human solid tumor model (T/C %)
Excerpt: (§1) In order to study solid tumor growth inhibitory activities of the compounds of the formula (I) in vivo, WiDr human colon cancer cells were implanted subcutaneously into the flanks of nude mice. […]. The animals were grouped so that the average of the volumes of the respective groups became uniform, when it reached about 100 mm^3. Control group was made up of 10 mice and 11107D-administering groups were made up of 5 mice. The derivatives were administered for the administering groups for 5 consecutive days by intravenous injection so as to be any of 0.625 mg, 1.25 mg, 2.5 mg, 5 mg and 10 mg/kg/day, and a vehicle was administered to the control group. The tumor volumes on Day 15 were measured, and relative tumor volume ratios (T/C %) were determined setting the tumor volume of the control group as 100%. The body weights on Day 1, Day 5, Day 8, Day 12 and Day 15 (or 16) were measured, and relative body weight variations were determined setting the body weight on Day 1 as 100%. The relative body weight ratios on the day where the body weight reached the minimum were defined as the minimum relative weight ratios and are shown in Table 3.

[4] = Body weight loss (acute toxicity) in the WiDr tumor model; type: in vivo, nude mice; conditions: Dose 2.5 mg/kg, intravenous 5 consecutive days; body weight relative to Day 1
Excerpt: as §1

Row | SMILES | IC50 (VEGF promoter; U-251, 18 h) | IC50 [1] | Peak area (mAU × sec) after 24 hours [2] | The residual ratios (%) [2] | Peak area (mAU × sec) initial [2] | response vs control in vivo at 2.5 mg/kg [3] | the minimum relative weight ratios [4] | IC50 (VEGF promoter; U-251, U251/1-8 cells, hypoxic incubator 18 hours, PLAP activity)
1 | CCC(O)C(C)C1OC1CC(C)(O)/C=C/C=C(\C)C1OC(=O)CC(O)CCC(C)(OC)C(OC(=O)N2CCCN(C3CCCCC3)CC2)/C=C/C1C (centres unmarked) [Compound 95, (8E,12E,14E)-7-((4-Cyclohexylhomopiperazin-1-yl)carbonyl)oxy-3,16,21-trihydroxy-6-methoxy-6,10,12,16,20-pentamethyl-18,19-epoxytricosa-8,12,14-trien-11-olide] | 1.2 nM | 0.5 nM | – | – | – | – | – | –
2 | CCC(OC)C(C)C1OC1CC(C)(O)/C=C/C=C(\C)C1OC(=O)CC(O)CCC(C)(O)C(OC(=O)N2CCN(C(C)C)CC2)/C=C/C1C (centres unmarked) [Compound 130, (8E,12E,14E)-3,6,16-Trihydroxy-7-((4-isopropylpiperazin-1-yl)carbonyl)oxy-21-methoxy-6,10,12,16,20-pentamethyl-18,19-epoxytricosa-8,12,14-trien-11-olide] | – | – | 4583 mAU × sec | 95.1% | 4819 mAU × sec | – | – | –
3 | CCCN1CCN(C(=O)OC2/C=C/C(C)C(/C(C)=C/C=C/C(C)(O)CC3OC3C(C)C(O)CC)OC(=O)CC(O)CCC2(C)O)CC1 (centres unmarked) [Compound 25, (8E,12E,14E)-3,6,16,21-Tetrahydroxy-6,10,12,16,20-pentamethyl-7-((4-propylpiperazin-1-yl)carbonyl)oxy-18,19-epoxytricosa-8,12,14-trien-11-olide] | 2.9 nM | 1.2 nM | – | – | – | – | – | –
4 | CCC(O)C(C)C1OC1CC(C)(O)/C=C/C=C(\C)C1OC(=O)CC(O)CCC(C)(OC)C(OC(=O)N2C[C@@H]3C[C@H]2CN3CC)/C=C/C1C (stereo in doubt) [Compound 122, (8E,12E,14E)-7-(((1S,4S)-5-Ethyl-2,5-diazabicyclo[2.2.1]heptan-2-yl)carbonyl)oxy-3,16,21-trihydroxy-6-methoxy-6,10,12,16,20-pentamethyl-18,19-epoxytricosa-8,12,14-trien-11-olide] | 4.4 nM | 1.1 nM | 4620 mAU × sec | 94.8% | 4872 mAU × sec | – | – | –
5 | CCC(O)C(C)C1OC1CC(C)(O)/C=C/C=C(\C)C1OC(=O)CC(O)CCC(C)(OC(=O)N2CCCN(CC)CC2)C(OC(C)=O)/C=C/C1C (centres unmarked) [Compound 136, (8E,12E,14E)-7-Acetoxy-6-((4-ethylhomopiperazin-1-yl)carbonyl)oxy-3,16,21-trihydroxy-6,10,12,16,20-pentamethyl-18,19-epoxytricosa-8,12,14-trien-11-olide] | 1.2 nM | 0.8 nM | 3579 mAU × sec | 95.4% | 3750 mAU × sec | – | – | –
6 | CCC(O)C(C)C1OC1CC(C)(O)/C=C/C=C(\C)C1OC(=O)CC(O)CCC(C)(O)C(OC(=O)N2CCN(CC3CC3)CC2)/C=C/C1C (centres unmarked) [Compound 27, (8E,12E,14E)-7-((4-(Cyclopropylmethyl)piperazin-1-yl)carbonyl)oxy-3,6,16,21-tetrahydroxy-6,10,12,16,20-pentamethyl-18,19-epoxytricosa-8,12,14-trien-11-olide] | 3.7 nM | 1.2 nM | – | – | – | – | – | –
7 | CCC(O)C(C)C1OC1CC(C)(O)/C=C/C=C(\C)C1OC(=O)CC(O)CCC(C)(O)C(OC(=O)N(C)C2CCN(C)CC2)/C=C/C1C (centres unmarked) [Compound 15, (8E,12E,14E)-3,6,16,21-Tetrahydroxy-6,10,12,16,20-pentamethyl-7-(N-methyl-N-(1-methylpiperidin-4-yl)carbamoyloxy)-18,19-epoxytricosa-8,12,14-trien-11-olide] | – | – | – | – | – | 36% | 0.82 | –
8 | CCC(O)C(C)C1OC1CC(C)(O)/C=C/C=C(\C)C1OC(=O)CC(O)CCC(C)(O)C(OC(=O)N2CCN(Cc3ccccc3)CC2)/C=C/C1C (centres unmarked) [Compound 24, (8E,12E,14E)-7-((4-Benzylpiperazin-1-yl)carbonyl)oxy-3,6,16,21-tetrahydroxy-6,10,12,16,20-pentamethyl-18,19-epoxytricosa-8,12,14-trien-11-olide] | 5.5 nM | 5.3 nM | – | – | – | – | – | –
9 | CCC(O)C(C)C1OC1CC(C)(O)/C=C/C=C(\C)C1OC(=O)CC(O)CCC(C)(O)C(OC(=O)N2CCN(C)CC2)/C=C/C1C (centres unmarked) [Compound 12, (8E,12E,14E)-3,6,16,21-Tetrahydroxy-6,10,12,16,20-pentamethyl-7-((4-methylpiperazin-1-yl)carbonyl)oxy-18,19-epoxytricosa-8,12,14-trien-11-olide] | 10.2 nM | – | 5169 mAU × sec | 94.9% | 5450 mAU × sec | 21% | 0.85 | –
10 | CCC(O)C(C)C1OC1CC(C)(O)/C=C/C=C(\C)C1OC(=O)CC(O)CCC(C)(O)C(OC(=O)CCc2ccccc2)/C=C/C1C (centres unmarked) [Compound 142, (8E,12E,14E)-3,6,16,21-Tetrahydroxy-6,10,12,16,20-pentamethyl-7-(3-phenylpropanoyl)oxy-18,19-epoxytricosa-8,12,14-trien-11-olide] | 11.2 nM | 4.9 nM | 3705 mAU × sec | 94.6% | 3916 mAU × sec | – | – | –
11 | CCOC1(C)CCC(O)CC(=O)OC(/C(C)=C/C=C/C(C)(O)CC2OC2C(C)C(O)CC)C(C)/C=C/C1OC(=O)N1CCN(C)CC1 (centres unmarked) [Compound 127, (8E,12E,14E)-6-Ethoxy-3,16,21-trihydroxy-6,10,12,16,20-pentamethyl-7-((4-methylpiperazin-1-yl)carbonyl)oxy-18,19-epoxytricosa-8,12,14-trien-11-olide] | – | 0.7 nM | – | – | – | – | – | 2.4 nM
12 | CCC(O)C(C)C1OC1CC(C)(O)/C=C/C=C(\C)C1OC(=O)CC(O)CCC(C)(O)C(OC(=O)N2CCCN(Cc3ccccc3)CC2)/C=C/C1C (centres unmarked) [Compound 17, (8E,12E,14E)-7-((4-Benzylhomopiperazin-1-yl)carbonyl)oxy-3,6,16,21-tetrahydroxy-6,10,12,16,20-pentamethyl-18,19-epoxytricosa-8,12,14-trien-11-olide] | 3.9 nM | 2.6 nM | – | – | – | – | – | –
